This assay has as its target RET G810R (Homo sapiens (Human), UniProt P07949, G810R). Briefly: HTRF KinEASE-TK kinase activity test, RET G810R. The following applies: for inhibitory activity against RET G810R relative to that of selpercatinib (LOXO-292): fold versus selpercatinib (LOXO-292). For orientation: TR-FRET usually uses a lanthanide donor and a delayed reading to cut background.
Setting [1] is: read-out: RET G810R IC50, HTRF kinase assay.

Where two headings read alike, the source gives them in different places. Bounds are passed on as bounds.

RET G810R, sequence (P07949 29-1114 G810R): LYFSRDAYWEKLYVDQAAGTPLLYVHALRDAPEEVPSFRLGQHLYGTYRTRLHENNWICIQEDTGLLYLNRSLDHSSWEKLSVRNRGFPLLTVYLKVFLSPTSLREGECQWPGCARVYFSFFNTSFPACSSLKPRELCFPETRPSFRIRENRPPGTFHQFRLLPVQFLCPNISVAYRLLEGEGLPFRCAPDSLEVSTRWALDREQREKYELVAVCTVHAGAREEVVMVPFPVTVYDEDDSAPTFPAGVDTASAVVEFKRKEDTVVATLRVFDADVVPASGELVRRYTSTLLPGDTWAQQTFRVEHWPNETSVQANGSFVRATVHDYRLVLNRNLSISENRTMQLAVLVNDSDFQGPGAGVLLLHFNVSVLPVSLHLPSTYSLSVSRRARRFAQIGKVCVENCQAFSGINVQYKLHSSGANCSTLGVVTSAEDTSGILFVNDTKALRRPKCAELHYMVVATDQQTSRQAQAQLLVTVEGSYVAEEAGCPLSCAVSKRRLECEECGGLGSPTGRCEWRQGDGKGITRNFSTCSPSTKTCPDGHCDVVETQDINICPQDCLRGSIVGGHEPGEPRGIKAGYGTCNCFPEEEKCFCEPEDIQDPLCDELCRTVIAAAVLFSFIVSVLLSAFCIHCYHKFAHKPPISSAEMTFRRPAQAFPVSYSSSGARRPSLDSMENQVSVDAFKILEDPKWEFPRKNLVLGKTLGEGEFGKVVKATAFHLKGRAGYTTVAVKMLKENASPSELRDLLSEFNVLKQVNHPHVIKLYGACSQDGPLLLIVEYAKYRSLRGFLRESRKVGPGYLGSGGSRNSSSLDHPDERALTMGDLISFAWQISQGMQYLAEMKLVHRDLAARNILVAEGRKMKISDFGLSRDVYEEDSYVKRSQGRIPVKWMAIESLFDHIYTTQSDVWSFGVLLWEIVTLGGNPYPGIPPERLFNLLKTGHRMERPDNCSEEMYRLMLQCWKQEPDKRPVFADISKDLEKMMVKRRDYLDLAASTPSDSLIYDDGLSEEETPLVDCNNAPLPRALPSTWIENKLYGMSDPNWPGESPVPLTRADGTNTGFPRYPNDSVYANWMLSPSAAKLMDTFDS

As to `CCOc1cc(-c2ccc(N3CC[C@H](NC(=O)c4cc(F)ccc4C)[C@H](O)C3)nc2)c2c3cn[nH]c3nn2c1` [Compound 277, N-((3R,4S)-1-(5-(6-ethoxy-1H-pyrazolo[3′,4′:3,4]pyrazolo[1,5-α]pyridin-4-yl)pyridin-2-yl)-3-hydroxypiperidin-4-yl)-5-fluoro-2-methylbenzamide], the “inhibitory activity against RET G810R relative to that of selpercatinib (LOXO-292)” value is on record as at least 10 times. Also, the IC50 under setting [1] is 1.2 nM.

Consider `CCOc1cc(-c2ccc(N3C4CCC3CN(Cc3ccc(OC)nc3)C4)nc2)c2c3cn[nH]c3nn2c1` [Compound 158, 6-ethoxy-4-(6-((1R,5S)-3-((6-methoxypyridin-3-yl)methyl)-3,8-diazabicyclo[3.2.1]octan-3-yl)pyridin-8-yl)-1H-pyrazolo[3′,4′:3,4]pyrazolo[1,5-α]pyrazole], for which, under setting [1], the IC50 came out at 18.7 nM.

As to `CCOc1cc(-c2ccc(N3CCC4(CCN(C(=O)c5c(F)cccc5Cl)C4)CC3)nc2)c2c3cn[nH]c3nn2c1` [Compound 208, N-(8-(5-(6-ethoxy-1H-pyrazolo[3′,4′:3,4]pyrazolo[1,5-α]pyridin-4-yl)pyridin-2-yl)-2,8-diazaspiro [4.5]decan-2-yl)-2-chloro-6-fluorobenzamide], the IC50 under setting [1] is 24.1 nM.

For `CCOc1cc(-c2ccc(N3CC[C@H](NC(=O)c4cc(F)ccc4Cl)[C@@H](O)C3)nc2)c2c3cn[nH]c3nn2c1` [Compound 43], the “inhibitory activity against RET G810R relative to that of selpercatinib (LOXO-292)” value is given as at least 10 times. Under setting [1], the IC50 is 1.9 nM.

Consider `CCOc1cc(-c2ccc(N3CC[C@H](NC(=O)c4ncccc4C(F)(F)F)[C@@H](O)C3)nc2)c2c3cn[nH]c3nn2c1` [Compound 45], for which the IC50 under setting [1] came to 5.2 nM.

As for `CCOc1cc(-c2ccc(N3CC[C@H](NC(=O)c4ncccc4C(F)(F)F)[C@H](O)C3)nc2)c2c3cn[nH]c3nn2c1` [Compound 284, N-((3R,4S)-1-(5-(6-ethoxy-1H-pyrazolo[3′,4′:3,4]pyrazolo[1,5-α]pyridin-4-yl)pyridin-2-yl)-3-hydroxypiperidin-4-yl)-3-(trifluoromethyl)picolinamide], the IC50 under setting [1] was determined as 4.2 nM.

`CCOc1cc(-c2cnc(N3CCC(C)(NC(=O)c4nc(C)ccc4Cl)CC3)cn2)c2c3cn[nH]c3nn2c1` [Compound 56]: the half-inhibitory concentration (IC50) under setting [1] was 23.6 nM.

With `CCOc1cc(-c2ccc(N3CC[C@H](NC(=O)c4c(C)cccc4Cl)[C@H](O)C3)nc2)c2c3cn[nH]c3nn2c1` [Compound 278, 2-chloro-N-((3R,4S)-1-(5-(6-ethoxy-1H-pyrazolo[3′,4′:3,4]pyrazolo[1,5-α]pyridin-4-yl)pyridin-2-yl)-3-hydroxypiperidin-4-yl)-6-methylbenzamide], the “inhibitory activity against RET G810R relative to that of selpercatinib (LOXO-292)” value is listed as at least 10 times. Moreover, under setting [1], the IC50 is 0.9 nM.

`COc1ccc(CN2C3CC2CN(c2ccc(-c4cc(OCC(=O)O)cn5nc6[nH]ncc6c45)cn2)C3)cn1` [Compound 240, 2-((4-(6-(6-((6-methoxypyridin-3-yl)methyl)-3,6-diazabicyclo[3.1.1]heptan-3-yl)pyridin-3-yl)-1 H-pyrazolo[3′,4′:3,4]pyrazolo[1,5-α]pyridin-6-yl)oxy)acetic acid] showed an IC50 of 4 nM.

Take `CCOc1cc(-c2ccc(N3CCC(CN(C)C)(NC(=O)c4ncccc4Cl)CC3)nc2)c2c3cn[nH]c3nn2c1` [Compound 15, 3-chloro-N-(4-((2-dimethylamino)methyl)-1-(5-(6-ethoxy-1H-pyrazolo[3′,4′:3,4]pyrazolo[1,5-α]pyridin-4-yl)pyridin-2-yl)piperidin-4-yl)picolinamide]: the “inhibitory activity against RET G810R relative to that of selpercatinib (LOXO-292)” value was at least 10 times. Under setting [1], the IC50 worked out at 1.5 nM.

`CCOc1cc(-c2ccc(N3C[C@@H]4[C@@H](CNC(=O)c5c(F)cccc5Cl)[C@@H]4C3)nc2)c2c3cn[nH]c3nn2c1` [Compound 183, 2-chloro-N-(((1R,5S,6s)-3-(5-(6-ethoxy-1H-pyrazolo[3′,4′:3,4]pyrazolo[1,5-α]pyridin-4-yl)pyridin-2-yl)-3-azabicyclo[3.1.0]hexan-6-yl)methyl)-6-fluorobenzamide]: the IC50 under setting [1] was 8 nM.

Take `CCOc1cc(-c2ccc(N3CCC(Oc4ccc(C)nn4)CC3)nc2)c2c3cn[nH]c3nn2c1` [Compound 104, 6-ethoxy-4-(6-(4-((6-methylpyridazin-3-yl)oxy)piperidin-1-yl)pyridin-3-yl)-1H-pyrazolo[3′,4′:3,4]pyrazolo[1,5-α]pyridine]: the IC50 under setting [1] stood at 6.4 nM.

Regarding `CCOc1cc(-c2ccc(N3CCC4(CN(C(=O)c5c(F)cccc5Cl)C4)C3)nc2)c2c3cn[nH]c3nn2c1` [Compound 220, N-(6-(5-(6-ethoxy-1H-pyrazolo[3′,4′:3,4]pyrazolo[1,5-α]pyridin-4-yl)pyridin-2-yl)-2,6-diazaspiro [3.4]octan-2-yl)-2-chloro-6-fluorobenzamide], under setting [1], the IC50 is 26.2 nM.

`CCOc1cc(-c2ccc(N3CC4(CCCN(C(=O)c5c(F)cccc5Cl)C4)C3)nc2)c2c3cn[nH]c3nn2c1` [Compound 193, N-(2-(5-(6-ethoxy-1H-pyrazolo[3′,4′:3,4]pyrazolo[1,5-α]pyridin-4-yl)pyridin-2-yl)-2,6-diazaspiro [3.5]nonan-6-yl)-2-chloro-6-fluorobenzamide]: the IC50 under setting [1] amounted to 33.7 nM.

As for `O=C(N[C@H]1CCN(c2ccc(-c3cc(OCCF)cn4nc5[nH]ncc5c34)cn2)C[C@H]1O)c1c(F)cccc1F` [Compound 267, N-((3R,4S)-1-(5-(6-(2-fluoroethoxy)-1H-pyrazolo[3′,4′:3,4]pyrazolo[1,5-α]pyridin-4-yl)pyridin-2-yl)-3-hydroxypiperidin-4-yl)-2,6-difluorobenzamide], the “inhibitory activity against RET G810R relative to that of selpercatinib (LOXO-292)” value is recorded as at least 10 times. Also, the IC50 under setting [1] stood at 3 nM.

In the case of `CCOc1cc(-c2cnc(N3CCC(C)(NC(=O)c4ncc(F)cc4Cl)CC3)cn2)c2c3cn[nH]c3nn2c1` [Compound 55, 3-chloro-N-(1-(5-(6-ethoxy-1H-pyrazolo[3′,4′:3,4]pyrazolo[1,5-α]pyridin-4-yl)pyrazin-2-yl)-4-methylpiperidin-4-yl)-5-fluoro-2-picolinamide], the half-maximal inhibitory concentration (IC50) under setting [1] worked out at 4.5 nM.

For `CCOc1cc(-c2ccc(N3CC[C@H](NC(=O)c4cc(F)ccc4F)[C@H](O)C3)nc2)c2c3cn[nH]c3nn2c1` [Compound 273, N-((3R,4S)-1-(5-(6-ethoxy-1H-pyrazolo[3′,4′:3,4]pyrazolo[1,5-α]pyridin-4-yl)pyridin-2-yl)-3-hydroxypiperidin-4-yl)-2,5-difluorobenzamide], the “inhibitory activity against RET G810R relative to that of selpercatinib (LOXO-292)” value is listed as at least 10 times. Besides, the IC50 under setting [1] was determined as 1.8 nM.

As to `CCOc1cc(-c2ccc(N3CCN(Cc4ccc(OC)nc4)C(CN(C)C)C3)nc2)c2c3cn[nH]c3nn2c1` (stereo not drawn) [Compound 245, 1-(4-(5-(6-ethoxy-1H-pyrazolo[3′,4′:3,4]pyrazolo[1,5-α]pyridin-4-yl)pyridin-2-yl)-1-((6-methoxypyridin-3-yl)methylene)piperazin-2-yl)-N,N-dimethylmethanamine], the IC50 under setting [1] came to 20.8 nM.

Regarding `CCOc1cc(-c2ccc(N3C[C@@H]4C5CCC([C@@H]4C3)N5C(=O)c3c(F)cccc3Cl)nc2)c2c3cn[nH]c3nn2c1` [Compound 180, (2-chloro-6-fluorophenyl)((3aR,7aS)-2-(5-(6-ethoxy-1H-pyrazolo[3′,4′:3,4]pyrazolo[1,5-α]pyridin-4-yl)pyridin-2-yl)octahydro-1H-4,7-epiminoisoindol-8-yl)methanone], the IC50 under setting [1] was 9.7 nM.

By IC50 is commonly meant the concentration at which inhibition is half-maximal.

These data come from patent US20240174674A1, “NITROGEN-CONTAINING POLYCYCLIC FUSED RING COMPOUND, PHARMACEUTICAL COMPOSITION THEREOF, PREPARATION METHOD THEREFOR, AND USE THEREOF” (APPLIED PHARMACEUTICAL SCIENCE, INC., priority 2021, published 2024).
